Reference: article PMC10902181 (Journal of neurochemistry, 2023)

Legend:
[1] = target: T1, GluN1/GluN2A-L611Q (Homo sapiens, UniProt Q05586+Q12879, L611Q); test: Current-voltage curves; settings: 2A-L611Q, 1 mM Mg^2+ alone
[2] = target: T2, WT GluN1/GluN2B (Homo sapiens, UniProt Q05586+Q13224); test: Current-voltage curves; settings: WT 2B, 1 mM Mg^2+ alone
[3] = target: T3, WT GluN1/GluN2A (Homo sapiens, UniProt Q05586+Q12879); test: Current-voltage curves; settings: WT 2A, 1 mM Mg^2+ alone
[4] = target: GluN1/GluN2B-V620M (Homo sapiens, UniProt Q05586+Q13224, V620M); test: Current-voltage curves; settings: 2B-V620M
[5] = target: GluN2B-V620M-containing NMDARs (Homo sapiens, UniProt Q05586+Q13224, V620M); test: TEVC current recordings from Xenopus oocytes, channel blocker inhibition; type: cell-based; settings: 2B-V620M, 100 μM blocker, −40 mV
[6] = target: GluN2A-N615K-containing NMDARs (Homo sapiens, UniProt Q05586+Q12879, N615K); test: as above; type: cell-based; settings: 2A-N615K, 100 μM blocker, −40 mV
[7] = target: GluN2A-N614S-containing NMDARs (Homo sapiens, UniProt Q05586+Q12879, N614S); test: as above; type: cell-based; settings: for % inhibition: 2A-N614S, 100 μM blocker, −40 mV
[8] = target: T1, GluN1/GluN2A-L611Q; test: as above; type: cell-based; settings: for % inhibition: 2A-L611Q, 100 μM blocker, −40 mV
[9] = target: GluN2B-N616K-containing NMDARs (Homo sapiens, UniProt Q05586+Q13224, N616K); test: as above; type: cell-based; settings: 2B-N616K, 100 μM blocker, −40 mV
[10] = target: GluN2B-G611V-containing NMDARs (Homo sapiens, UniProt Q05586+Q13224, G611V); test: as above; type: cell-based; settings: 2B-G611V, 100 μM blocker, −40 mV
[11] = target: GluN2B-W607C-containing NMDARs (Homo sapiens, UniProt Q05586+Q13224, W607C); test: as above; type: cell-based; settings: 2B-W607C, 100 μM blocker, −40 mV
[12] = target: T3, WT GluN1/GluN2A; test: as above; type: cell-based; settings: WT GluN1/WT 2A, 100 μM blocker, −40 mV
[13] = target: T2, WT GluN1/GluN2B; test: as above; type: cell-based; settings: WT GluN1/WT 2B, 100 μM blocker, −40 mV
[14] = target: GluN1-G620R/GluN2A (Homo sapiens, UniProt Q05586+Q12879, G620R); test: as above; type: cell-based; settings: for % inhibition: 1-G620R/2A, 100 μM blocker, −40 mV
[15] = target: GluN1/GluN2B-N615K (Homo sapiens, UniProt Q05586+Q13224, N615K); test: as above; type: cell-based; settings: 2B-N615K, 100 μM blocker, −40 mV
[16] = target: GluN2B-V618G-containing NMDARs (Homo sapiens, UniProt Q05586+Q13224, V618G); test: as above; type: cell-based; settings: 2B-V618G, 100 μM blocker, −40 mV
[17] = target: GluN1/GluN2B-N615I (Homo sapiens, UniProt Q05586+Q13224, N615I); test: as above; type: cell-based; settings: for % inhibition: 2B-N615I, 100 μM blocker, −40 mV

Compound: [Mg+2] [Mg^2+]
- z δ [1]: 1.21
- Kd ([1]; read-out: KD, 0 mV): 13000 µM
- z δ [2]: 1.96
- Kd ([2]; read-out: KD, 0 mV): 1830 µM
- z δ [3]: 1.97
- Kd ([3]; read-out: KD, 0 mV): 1520 µM
- z δ ([4]; 1 mM Mg^2+ alone): 1.47
- Kd ([4]; read-out: KD, 0 mV, 1 mM Mg^2+ alone): 3930 µM

Compound: CC12CC3CC(C)(C1)CC(N)(C3)C2 [memantine]
- % inhibition ([5]; w/ 1 mM Mg^2+): 95 ± 0.7% (7)
- % inhibition ([5]; w/o Mg^2+): 96 ± 0.7% (8)
- % inhibition ([6]; w/ 1 mM Mg^2+): 81 ± 1.6% (8) ^*^¥
- % inhibition ([6]; w/o Mg^2+): 90 ± 2.5% (7)
- % inhibition ([7]; w/ 1 mM Mg^2+): 25 ± 6.1% (10) ^*^¥
- % inhibition ([7]; w/o Mg^2+): 60 ± 4.1% (9)^¥
- reduced sensitivity compared to the WT receptors ([7]; GluN2A-N614S, presence of 1 mM Mg^2+): 9 fold
- % inhibition ([8]; w/ 1 mM Mg^2+): 94 ± 0.6% (9)
- % inhibition ([8]; w/o Mg^2+): 87 ± 2.1% (12)
- increased potency in 1 mM Mg^2+ compared to the same variant in the absence of Mg^2+ ([8]; GluN2A-L611Q): 3.1 fold
- enhanced potency compared to the WT receptors ([8]; GluN2A-L611Q, presence of 1 mM Mg^2+): 3.7 fold
- % inhibition ([9]; w/ 1 mM Mg^2+): 88 ± 1.6% (24)^¥
- % inhibition ([9]; w/o Mg^2+): 93 ± 1.8% (7)
- % inhibition ([10]; w/ 1 mM Mg^2+): 97 ± 1.2% (14)
- % inhibition ([10]; w/o Mg^2+): 95 ± 1.4% (10)
- % inhibition ([11]; w/ 1 mM Mg^2+): 92 ± 2.8% (11)
- % inhibition ([11]; w/o Mg^2+): 91 ± 2.0% (10)
- % inhibition ([12]; w/ 1 mM Mg^2+): 89 ± 1.3% (30)
- % inhibition ([12]; w/o Mg^2+): 94 ± 1.2% (15)
- % inhibition ([13]; w/ 1 mM Mg^2+): 93 ± 0.8% (26)
- % inhibition ([13]; w/o Mg^2+): 97 ± 1.1% (18)
- % inhibition ([14]; w/ 1 mM Mg^2+): 98 ± 0.4 (8) %
- % inhibition ([14]; w/o Mg^2+): 96 ± 1.3% (8)
- increased potency in 1 mM Mg^2+ compared to the same variant in the absence of Mg^2+ ([14]; GluN1-G620R): 2.4 fold
- enhanced potency in comparison to WT NMDARs ([14]; GluN1-G620R, absence of Mg^2+): 2.7 fold
- enhanced potency compared to the WT receptors ([14]; GluN1-G620R, presence of 1 mM Mg^2+): 17 fold
- % inhibition ([15]; w/ 1 mM Mg^2+): 12 ± 1.9% (21) ^*^¥
- % inhibition ([15]; w/o Mg^2+): 22 ± 2.5% (14)^¥
- % inhibition ([16]; w/ 1 mM Mg^2+): 87 ± 2.1% (14)^¥
- % inhibition ([16]; w/o Mg^2+): 85 ± 1.5% (16)^¥
- z δ (apparent, combined block) ([4]; 1 mM Mg^2+ + 0.3 μM memantine): 1.54
- z δ (apparent, combined block) ([4]; 1 mM Mg^2+ + 1.0 μM memantine): 1.52
- z δ (apparent, combined block) ([4]; 1 mM Mg^2+ + 3.0 μM memantine): 1.38
- z δ (apparent, combined block) ([4]; 1 mM Mg^2+ + 10 μM memantine): 1.28
- % inhibition ([17]; w/ 1 mM Mg^2+): 98 ± 0.7% (13)
- % inhibition ([17]; w/o Mg^2+): 96 ± 1.1% (11)
- enhanced potency in comparison to WT NMDARs ([17]; GluN2B-N615I, absence of Mg^2+): 4.3 fold
- enhanced potency compared to the WT receptors ([17]; GluN2B-N615I, presence of 1 mM Mg^2+): 7.2 fold
